Source: a melting point compilation (Tetko et al.)

SMILES	melting point [°C]
CC(C)(C)c1cc(SC(CCCC(Sc2cc(C(C)(C)C)c(O)c(C(C)(C)C)c2)Sc2cc(C(C)(C)C)c(O)c(C(C)(C)C)c2)Sc2cc(C(C)(C)C)c(O)c(C(C)(C)C)c2)cc(C(C)(C)C)c1O	148 to 153
COc1ccc(C(/C=C/c2cc(I)c(OC)c(OC)c2)S(=O)(=O)C(/C=C/c2cc(I)c(OC)c(OC)c2)c2ccc(OC)cc2)cc1 (stereo unspecified)	160 to 161
CCOC(=O)c1cc(NCc2c(C)cccc2CC)c2nc(C)n(C)c2c1	171 to 173
CCCCCCCCCCCCSc1nc(N(C2CC(C)(C)NC(C)(C)C2)C2CC(C)(C)NC(C)(C)C2)nc(N(C2CC(C)(C)NC(C)(C)C2)C2CC(C)(C)NC(C)(C)C2)n1	168 to 170
CC1(C)CC(O)(C#N)CC(C)(C)N1	129 to 132
CCCCCCCCCCCCCC=CC(OC(=O)c1ccccc1)C(COC1OC(COCCC(C(=O)OC(C)(C)C)C(=O)OC(C)(C)C)C(O)C(O)C1O)NC(=O)CCCCCCCCCCCCCCC (stereo unspecified)	47.5 to 48.5

The next lines start with the values.

melting point [°C]	SMILES
115 to 120	CC(C)[C@H](NC(=O)N(C)Cc1csc(NC(=O)OC(C)(C)C)n1)C(=O)N[C@@H](Cc1ccccc1)C[C@H](O)[C@H](Cc1ccccc1)NC(=O)[C@@H](NC(=O)N(C)Cc1csc(NC(=O)OC(C)(C)C)n1)C(C)C
186 to 188	C=CCOC1C(NC(C)=O)C(OCc2ccccc2)OC(COCc2ccccc2)C1OC1(N)OC(COCc2ccccc2)C(OCc2ccccc2)C(OCc2ccccc2)C1C(=O)OCC(Cl)(Cl)Cl (stereo unspecified)
178 to 179	CC(C)[C@H](NC(=O)N1CCN(Cc2ccccc2)CC1)C(=O)N[C@@H](Cc1ccccc1)[C@@H](O)[C@H](O)[C@H](Cc1ccccc1)NC(=O)[C@@H](NC(=O)N1CCN(Cc2ccccc2)CC1)C(C)C
173 to 175	CS(=O)(=O)C1CCN(Cc2ccc(COc3cccc4c3CN(C3CCC(=O)NC3=O)C4=O)cc2)CC1 (stereo unspecified)
93.4	CCCCCCCCOc1ncc(-c2ccc(C(OC(c3ccc(-c4cnc(OCCCCCCCC)nc4)cc3)C3COC4(CCCCC4)O3)C3COC4(CCCCC4)O3)cc2)cn1 (stereo unspecified)
